In brackets after ≈: the same amount, converted by molar mass.
Legend:
physchem [1] = assay: physchem
Description: Dissociation constant (pKa)

[2] = not given; remark: listed apart in the source
[3] = not given; remark: listed apart in the source
physchem [4] = assay: physchem; remark: listed apart in the source
Description: Dissociation constant (pKa)

physchem [5] = assay: physchem; remark: listed apart in the source
Description: Dissociation constant (pKa)

Pasteurella multocida [6] = format: functional
Description: Log value of the Minimum inhibitory concentration against Pasteurella multocida.

Mus musculus = organism: Mus musculus; assay: Protective dose at which 50% of infected, treated mice survive; format: functional; conditions: read-out: PD50
Pasteurella multocida [7] = assay: Minimum inhibitory concentration against Pasteurella multocida.; format: functional
Pasteurella multocida [8] = assay: Minimum inhibitory concentration against Pasteurella multocida; format: functional

| Structure (SMILES) | Log K | pKa (physchem [1]) | pCF [2] | pNF [3] | pKa (physchem [4]) | pKa (physchem [5]) | Log 1/MIC (Pasteurella multocida [6]) | ED50 (Mus musculus) [mg/kg] | MIC (Pasteurella multocida [7]) [µg/mL] | MIC (Pasteurella multocida [8]) [µg/mL] |
| --- | --- | --- | --- | --- | --- | --- | --- | --- | --- | --- |
| CCC1OC(=O)CC(O)C(C)C(O[C@@H]2O[C@H](C)C[C@H](N(C)C)[C@H]2O)C(CC=O)CC(C)C(=O)/C=C/C(C)=C/C1C (stereo partly specified) | 0.86 | 8.83 | 0.016 | 1.446 |  |  |  |  |  |  |
| CC[C@H]1OC(=O)CC(O)[C@H](C)[C@@H](O[C@@H]2O[C@H](C)C[C@H](N(C)C)[C@H]2O)[C@@H](CCN(C)CCN(C)C)C[C@@H](C)C(=O)/C=C/C(C)=C/[C@@H]1C (stereo partly specified) | -0.23 | 5.61 | 0.863 | 2.413 | 8.95 | 8.19 | 2.44 |  |  |  |
| CC[C@H]1OC(=O)CC(O)[C@H](C)[C@@H](O[C@@H]2O[C@H](C)C[C@H](N(C)C)[C@H]2O)[C@@H](CCNCCCN(C)C)C[C@@H](C)C(=O)/C=C/C(C)=C/[C@@H]1C (stereo partly specified) | 0.19 | 7.97 | 2.157 | 4.887 | 10.1 | 8.88 | 3.22 |  |  |  |
| CC[C@H]1OC(=O)CC(O)[C@H](C)[C@@H](O[C@@H]2O[C@H](C)C[C@H](N(C)C)[C@H]2O)[C@@H](CCNCCO)C[C@@H](C)C(=O)/C=C/C(C)=C/[C@@H]1C (stereo partly specified) | 0.1 | 8.59 | 1.217 | 3.437 |  | 9.62 | 3.79 |  |  |  |
| CC[C@H]1OC(=O)CC(O)[C@H](C)[C@@H](O[C@@H]2O[C@H](C)C[C@H](N(C)C)[C@H]2O)[C@@H](CCNCC(C)(C)CO)C[C@@H](C)C(=O)/C=C/C(C)=C/[C@@H]1C (stereo partly specified) | 0.43 | 8.53 | 1.161 | 3.481 |  | 9.72 | 4.12 |  |  |  |
| CC[C@H]1OC(=O)CC(O)[C@H](C)[C@@H](O[C@@H]2O[C@H](C)C[C@H](N(C)C)[C@H]2O)[C@@H](CCN(CCCN(C)C)C(=O)[C@H](C)N)C[C@@H](C)C(=O)/C=C/C(C)=C/[C@@H]1C (stereo partly specified) | -0.12 | 7.81 | 1.938 | 4.138 | 9.6 | 8.78 | 3.27 |  |  |  |
| CC[C@H]1OC(=O)CC(O)[C@H](C)[C@@H](O[C@@H]2O[C@H](C)C[C@H](N(C)C)[C@H]2O)[C@@H](CCN(C)CCCN(C)C(=O)[C@H](C)N)C[C@@H](C)C(=O)/C=C/C(C)=C/[C@@H]1C (stereo partly specified) | -0.16 | 7.03 | 1.307 | 3.067 | 9.16 | 8.53 | 3.27 |  |  |  |
| CC[C@H]1OC(=O)C[C@@H](O)[C@H](C)[C@@H](O[C@@H]2O[C@H](C)[C@@H](O)[C@@H](N(C)C)[C@H]2O)[C@@H](CC=O)C[C@@H](C)C(=O)/C=C/C(C)=C/[C@@H]1CO[C@@H]1O[C@H](C)[C@@H](O)[C@@H](OC)[C@H]1OC | 0.17 | 8.36 | 0.045 | 1.005 |  |  | 2.39 |  |  |  |
| CO[C@@H]1[C@@H](O[C@@H]2O[C@H](C)[C@@H](O[C@H]3C[C@@](C)(O)[C@@H](OC(=O)CC(C)C)[C@@H](C)O3)[C@@H](N(C)C)[C@H]2O)[C@@H](CC=O)C[C@@H](C)C(=O)/C=C/C=C/C[C@@H](C)OC(=O)C[C@H]1OC(C)=O |  |  |  |  |  |  |  | > 150 | 6.25 (≈ 7.57 µM) |  |
| CC[C@H]1OC(=O)CC(O)[C@H](C)[C@@H](O[C@@H]2O[C@H](C)C[C@H](N(C)C)[C@H]2O)[C@@H](CCNC2C(O)CCCC2O)C[C@@H](C)C(=O)/C=C/C(C)=C/[C@@H]1C (stereo partly specified) | 0.23 | 8.56 | 1.189 | 3.099 |  | 9.31 | 3.53 |  |  |  |
| CC[C@H]1OC(=O)CC(O)[C@H](C)[C@@H](O[C@@H]2O[C@H](C)C[C@H](N(C)C)[C@H]2O)[C@@H](CCN(C)CCN(C)C(=O)[C@H](C)N)C[C@@H](C)C(=O)/C=C/C(C)=C/[C@@H]1C (stereo partly specified) | 0.02 | 6.81 | 0.891 | 2.391 | 8.9 | 8.13 | 4.15 |  |  |  |
| CO[C@H]1C[C@H](O[C@H]2[C@H](C)[C@@H](O[C@@H]3O[C@H](C)C[C@H](N(C)C)[C@H]3O)[C@@H](C)CC3(CO3)C(=O)[C@H](C)[C@@H](O)[C@@H](C)[C@@H](C)OC(=O)[C@@H]2C)O[C@@H](C)[C@@H]1O (single isomer, unassigned) [OLEANDOMYCIN] | 0.01 | 8.84 | 0.015 | 1.455 |  |  |  | > 150 | 6.25 (≈ 9.09 µM) |  |
| CC[C@H]1OC(=O)[C@H](C)[C@@H](O[C@H]2C[C@@](C)(OC)[C@@H](O)[C@H](C)O2)[C@H](C)[C@@H](O[C@@H]2O[C@H](C)C[C@H](N(C)C)[C@H]2O)[C@](C)(O)C[C@@H](C)CN(C)[C@H](C)[C@@H](O)[C@]1(C)O [AZITHROMYCIN] | 0.38 |  | 1.36 | 3.41 |  |  |  | 16 |  | 0.05 (≈ 0.0668 µM) |
| CO[C@@H]1[C@@H](O[C@@H]2O[C@H](C)[C@@H](O[C@H]3C[C@@](C)(O)[C@@H](OC(=O)CC(C)C)[C@H](C)O3)[C@H](N(C)C)[C@H]2O)[C@@H](CC=O)C[C@@H](C)C(=O)/C=C/[C@@H]2O[C@H]2C[C@@H](C)OC(=O)C[C@H]1OC(C)=O [CARBOMYCIN A] | 1.48 | 7.61 | 0.209 | 0.419 |  |  |  | > 150 | 1.56 (≈ 1.85 µM) |  |
| CC[C@H]1OC(=O)[C@H](C)[C@@H](O[C@H]2C[C@@](C)(OC)[C@@H](O)[C@H](C)O2)[C@H](C)[C@@H](O[C@@H]2O[C@H](C)C[C@H](N(C)C)[C@H]2O)[C@](C)(OC)C[C@@H](C)C(=O)[C@H](C)[C@@H](O)[C@]1(C)O [CLARITHROMYCIN] | 0.63 |  | 0.011 | 1.601 |  |  |  | 100 | 0.39 (≈ 0.521 µM) |  |
| CC[C@H]1OC(=O)[C@H](C)[C@@H](O[C@H]2C[C@@](C)(OC)[C@@H](O)[C@H](C)O2)[C@H](C)[C@@H](O[C@@H]2O[C@H](C)C[C@H](N(C)C)[C@H]2O)[C@](C)(O)C[C@@H](C)C(=O)[C@H](C)[C@@H](O)[C@]1(C)O [ERYTHROMYCIN] | 0.35 | 8.88 | 0.014 | 1.494 |  |  |  | > 150 | 0.78 (≈ 1.06 µM) |  |
| CC[C@H]1OC(=O)C[C@@H](O)[C@H](C)[C@@H](O[C@@H]2O[C@H](C)C[C@H](N(C)C)[C@H]2O)[C@@H](CC=O)C[C@@H](C)C(=O)/C=C/[C@]2(C)O[C@H]2[C@@H]1C [ROSARAMICIN] | 0.63 | 8.79 | 0.017 | 1.407 |  |  |  | 68 | 0.2 (≈ 0.344 µM) |  |
| CC[C@H]1OC(=O)C[C@@H](O)[C@H](C)[C@@H](O[C@@H]2O[C@H](C)[C@@H](O)[C@H](N(C)C)[C@H]2O)[C@@H](CCN2C[C@H](C)C[C@H](C)C2)C[C@@H](C)C(=O)/C=C/C(C)=C/[C@@H]1CO[C@@H]1O[C@H](C)[C@@H](O)[C@@H](OC)[C@H]1OC [TILMICOSIN] | 0.26 | 8.18 | 0.847 | 3.007 |  | 9.56 |  | 100 | 1.56 (≈ 1.79 µM) |  |
| CC[C@H]1OC(=O)C[C@@H](O)[C@H](C)[C@@H](O[C@@H]2O[C@H](C)[C@@H](O[C@H]3C[C@@](C)(O)[C@@H](O)[C@H](C)O3)[C@H](N(C)C)[C@H]2O)[C@@H](CC=O)C[C@@H](C)C(=O)/C=C/C(C)=C/[C@@H]1CO[C@@H]1O[C@H](C)[C@@H](O)[C@@H](OC)[C@H]1OC [TYLOSIN] | 0.68 | 7.73 | 0.167 | 0.497 |  |  |  | 86 | 25 (≈ 27.3 µM) |  |

Reference: ChEMBL document CHEMBL1130001, “Quantitative structure-activity relationships among macrolide antibacterial agents: in vitro and in vivo potency against Pasteurella multocida” (J Med Chem, 1997)
